# Results from patent publication US4431807A, “4-Methyl-5-(unsubstituted and substituted phenoxy)-6-methoxy-8-(aminoalkylamino)quinolines” (priority 1981, dated 1984).
# “And” between values parts separate entries of the source, which are not always exact repeats. Identical values can stand only once. Like-named read-outs stand apart in the source and are kept apart here.
# How the values were obtained:
# [1] = test system: Plasmodium berghei; test: Blood schizonticidal (suppressive) test, Rane mouse test, P. berghei; assay type: in vivo, Plasmodium berghei KBG 173 in ICR/HA Swiss mice; settings: for Extension of survival relative to controls / Suppressive activity (active/inactive) / Cures (60 days survival) / Toxic: Table III; for Suppressive activity (active/inactive) / Cures (60 days survival) / Toxic: five mice
# Excerpt: Blood Schizonticidal Test (Mouse), University of Miami, Rane (Suppressive)
# This system is based on comparisons of responses to test compounds by Plasmodium berghei KBG 173 malaria in mice as expressed in mean survival times and the mean survival times of untreated controls. Thus, compounds noted as active produce increases in the survival times of the treated animals that are significant when compared with the survival times of untreated controls. Since an established disease is less sensitive to treatment than a disease in the early stages of development, treatment is withheld until the parasitemia is relatively high in order to insure a more reliable assay of activity and the selection of appropriate compounds for intensive preclinical studies.
# Utilizing young ICR/HA Swiss mice and a standard inoculum of Plasmodium berghei KBG 173, it is possible to produce a uniform disease fatal to 100% of untreated animals within 6 to 8 days with a mean survival time of 6.2 days. Test animals weigh from 18 to 22 grams but weight variations in any given experimental or control group are confined to 2-3 grams. All animals in any given test are approximately of the same age. Animals on test are housed in metal-topped plastic cages, given a standard laboratory diet and water ad libitum.
# Test animals receive an intraperitoneal injection of 0.5 ml of 1:100 dilution of heparinized heart's blood with a minimum of 90% parasitized cells (4×10^7 cells), drawn from donor mice infected one week earlier with Plasmodium berghei. The donor stran is maintained by weekly passages in separate groups of mice inoculated with a 0.5 ml of 1:500 dilution of heparinized heart's blood.
# Test compounds are administered after dissolution or suspension in peanut oil. A single dose is given subcutaneously 72 hours after the mice are infected with Plasmodium berghei. At this time a 10-15 percent parasitemia has developed; the disease is well established but has not produced sufficient debility to alter the response of the host to toxic effects of the drug on test. Since treatment is withheld for three days to permit the infection to become well established and death occurs in untreated controls within 6-8 days, it is believed that this system presents a candidate compound with the maximum challenge. In order to check factors such as changes in the infectivity of Plasmodium berghei or in the susceptibility of the host or to detect technical errors, a group of infected animals treated with pyrimethamine at dose levels producing definite increases in survival time is included as a positive control in every experiment.
# In each experiment test compounds are administered in graded doses. […] However, if an active drug is toxic for the host, its toxicity may become a limiting factor; continued increases in dose levels also increase the toxic effects and may result in the diminution of survival times. Deaths prior to the sixth day, when untreated controls begin to die, are regarded as non-parasitic and become the basis for toxicity evaluations. Treated animals are kept under observation for 60 days. Survivors at the end of this period of time are considered as cured.
# An increase of 100% in mean survival time is considered the minimum effective response for a candidate compound. In calculating mean survival time, toxic deaths and 60 day survivors are not included.
# The antimalarial activity data acquired by the two test procedures described above are listed in Tables 2 and 3 for the compounds of this invention. In Table 4, the most promising compound of the series, compound 1, is compared directly with primaquine together with some additional test data for compound 1 compared to primaquine. In all the work reported herein primaquine is used in the form of the diphosphate salt. The test data are expressed in the form of the number of cures at a given dose level. […]
# [2] = test system: Plasmodium cynomolgi; test: Radical curative (tissue schizonticidal) test, SEATO, P. cynomolgi, rhesus monkey; assay type: in vivo, Plasmodium cynomolgi (strain B) in Indian rhesus monkeys; settings: for Radical curative activity relative to primaquine: in words; for Molar Primaquine Index CD 100: primaquine CD100 dose / drug CD100 dose, in moles
# Description: Radical Curative Test in Rhesus Monkeys, SEATO Medical Research Laboratory, Bangkok, John Brown/Richard Andre
# This test is designed to evaluate the tissue schizonticidal (radical curative) activity of test compounds. Well-conditioned Indian rhesus monkeys of either sex weighing 2-4 Kg are utilized. Plasmodium cynomolgi (strain B) sporozoites are prepared by grinding heavily infected Anopheles dirus salivary glands in 1:1 monkey serum-saline vehicle.
# Monkeys are infected by I.V. injection of 10^6 freshly isolated P. cynomolgi sporozoites on day 0. A rapidly rising parasitemia develops after a 7-9 day prepatent period, and administration of the test drug is initiated when the rising parasite count exceeds 5000 per mm^3 (typically day 10-12). Test drugs are administered orally (by nasogastric intubation) once daily for 7 consecutive days in aqueous solution or, if insoluble, in suspension in 0.3% methylcellulose solution. Chloroquine diphosphate (3.1 mg/kg base/kg orally per day) is always administered concurrently with the test drug for 7 days to eliminate blood schizonts. Thus any tissue schizonticidal activity of the test drug will always be apparent even if it lacks blood schizonticidal activity.
# A vehicle control monkey and a positive drug control (primaquine) monkey are included in each group of inoculated monkeys.
# The effect of the test drug is determined by counting blood parasites. Parasite counts are made daily through day 20, and every two days thereafter. Initially a clearance of blood parasites is observed due to the blood schizonticidal action of chloroquine. […] If there is no relapse within 20 days of the initial clearance of parasitemia, the monkey is splenectomized and its parasitemia followed for an additional 30 days. If there is no relapse within this period, the experiment is terminated and the monkey is considered "cured".
# Primaquine diphosphate cures over 90% of monkeys in this test system when administered at a dose of 1.3 mg/kg of salt per day for 7 days ([…]) in combination with chloroquine.
# The antimalarial activity data acquired by the two test procedures described above are listed in Tables 2 and 3 for the compounds of this invention. In Table 4, the most promising compound of the series, compound 1, is compared directly with primaquine together with some additional test data for compound 1 compared to primaquine. In all the work reported herein primaquine is used in the form of the diphosphate salt. The test data are expressed in the form of the number of cures at a given dose level. Extension of life (mean survival time) relative to the controls is noted in the Rane mouse test; if the mean survival time is extended seven or more days, the compound is considered to be active.
# The Molar Primaquine Index is useful in the radical curative test (Table II) as a gauge of the efficacy of a candidate drug relative to primaquine.
# [3] = test system: Plasmodium berghei; settings: cited from earlier work
# [4] = test system: Plasmodium cynomolgi; settings: cited from earlier work
SMILES,"Cures (60 days survival) ([1]; 10 mg/kg × 1, s.c.)","Cures (60 days survival) ([1]; 20 mg/kg × 1, s.c.)","Cures (60 days survival) ([1]; 40 mg/kg × 1, s.c.)","Cures (60 days survival) ([1]; 80 mg/kg × 1, s.c.)","Cures (60 days survival) ([1]; 160 mg/kg × 1, s.c.)","Cures (60 days survival) ([1]; 320 mg/kg × 1, s.c.)","Cures (60 days survival) ([1]; 640 mg/kg × 1, s.c.)","Toxic ([1]; 640 mg/kg × 1, s.c.)",Molar Primaquine Index CD 100 [2],other results
"COc1cc(NC(C)CCCN)c2nccc(C)c2c1Oc1ccc(F)cc1.O=P(O)(O)O (centres unmarked) [Compound 9, 8-((4-Amino-1-methylbutyl)amino)-5-(4-fluorophenoxy)-6-methoxy-4-methylquinoline Phosphate]",3C,4C,5C,5C,5C,4C,3C,2T,4.5,"Extension of survival relative to controls ([1]; 5 mg/kg × 1, s.c.): 7 days; Suppressive activity (active/inactive) ([1]; 5 mg/kg × 1, s.c.): A (Active, 7 Days or more estension of survival relative to controls.); Toxic ([1]; 320 mg/kg × 1, s.c.): 1T; minimal effective dose ([1]; Plasmodium berghei, sc, single dose, read-out: Curative dose, suppressive test): 10 mg/kg; Toxicity in suppressive test ([1]; relative to compound 1): somewhat more toxic; Radical curative activity relative to primaquine [2]: markedly superior to primaquine"
"COc1cc(NC(C)CCCN)c2nccc(C)c2c1 (centres unmarked) [4-Methylprimaquine, 4-methylprimaquine]",,,,,,,,,,"Δ MST ([3]; 160 mg/kg, 5 mice, Table I): 9 days; Δ MST ([3]; 320 mg/kg, 5 mice, Table I): 10 days; Cures ([3]; 640 mg/kg, 5 mice, Table I): 3C; Toxic deaths ([3]; 640 mg/kg, 5 mice, Table I): 1T; Only curative (toxic) dose in suppressive test ([3]; curative only at the toxic dose): 640 mg/kg; Suppressive activity ([3]; non-toxic dose levels, prior art comparison): very weak activity; Radical curative activity ([4]; 0.316 mg/kg, prior art comparison): inactive; % cures (radical curative) ([4]; 1.0 mg/kg): 100%; Radical curative activity relative to primaquine ([4]; prior art compounds): comparable to primaquine and essentially equivalent in efficacy"
"COc1cc(NCCCCC(C)N)c2nccc(C)c2c1Oc1cccc(C(F)(F)F)c1 (centres unmarked) [Compound 3, 8-((5-Amino-1-hexyl)amino)-6-methoxy-4-methyl-5-(3-trifluoromethylphenoxy)quinoline Hemisuccinate Hydrate]",3C,5C,5C,4C,4C,,,,1.3,"Extension of survival relative to controls ([1]; 5 mg/kg × 1, s.c.): 13 days; Suppressive activity (active/inactive) ([1]; 5 mg/kg × 1, s.c.): A (Active, 7 Days or more estension of survival relative to controls.)"
"COc1ccc(Oc2c(OC)cc(NC(C)CCCN)c3nccc(C)c23)cc1.O=P(O)(O)O (centres unmarked) [Compound 6, 8-((4-Amino-1-methylbutyl)amino)-6-methoxy-5-(4-methoxyphenoxy)-4-methylquinoline Phosphate]",,1C,5C,5C,5C,5C,2C,3T,4.6,"Extension of survival relative to controls ([1]; 10 mg/kg × 1, s.c.): 7 days; Suppressive activity (active/inactive) ([1]; 10 mg/kg × 1, s.c.): A (Active, 7 Days or more estension of survival relative to controls.); Radical curative activity relative to primaquine [2]: markedly superior to primaquine"
"CCC(CCCN)Nc1cc(OC)c(Oc2cccc(C(F)(F)F)c2)c2c(C)ccnc12.O=C(O)CCC(=O)O (centres unmarked) [Compound 4, 8-((4-Amino-1-ethylbutyl)amino)-6-methoxy-4-methyl-5-(3-trifluoromethylphenoxy)-quinoline Succinate]",3C,5C,5C,5C,5C,5C,,,1.3,"Cures (60 days survival) ([1]; 640 mg/kg × 1, s.c., Succinate): 2C and 3C"
"COc1cc(NC(C)CCCNC(C)C)c2nccc(C)c2c1Oc1cccc(C(F)(F)F)c1.O=C(O)CCC(=O)O (centres unmarked) [Compound 5, 8-((4-Isopropylamino-1-methylbutyl)amino)-6-methoxy-4-methyl-5-(3-trifluoromethylphenoxy)quinoline Succinate]",,,,,,,,4T,1.3,"Suppressive activity ([1]; in words, Table 3): totally ineffective"
"COc1cc(NCCCC(C)N)c2nccc(C)c2c1Oc1cccc(C(F)(F)F)c1 (centres unmarked) [Compound 2, 8-((4-Amino-1-pentyl)amino)-6-methoxy-4-methyl-5-(3-trifluoromethylphenoxy)-quinoline Hemisuccinate]",,4C,5C,,,,,,1.3,
OC(c1cc(C(F)(F)F)nc2c(C(F)(F)F)cccc12)C1CCCCN1 (centres unmarked) [mefloquine],,,,,,,,,,"Curative dose, Rane Test ([3]; newer clinical suppressive drug): 20 mg/kg"
"COc1cc(NC(C)CCCN)c2nccc(C)c2c1Oc1ccc(Cl)cc1Cl (centres unmarked) [Compound 8, 8-((4-Amino-1-methylbutyl)amino))-5-(2,4-dichlorophenoxy)-6-methoxy-4-methylquinoline Phosphate]",1C,5C,5C,5C,5C,4C,3C,2T,1.3,"Toxic ([1]; 320 mg/kg × 1, s.c.): 1T"
"COc1cc(NC(C)CCCN)c2nccc(C)c2c1Oc1ccc(Cl)c(Cl)c1.O=P(O)(O)O (centres unmarked) [Compound 7, 8-((4-Amino-1-methylbutyl)amino)-5-(3,4-dichlorophenoxy)-6-methoxy-4-methylquinoline Phosphate]",5C,5C,5C,5C,5C,5C,5C,,1.3,"Cures (60 days survival) ([1]; 5 mg/kg × 1, s.c.): 4C"
